The values that follow come from ChEMBL document CHEMBL2375211, “2-methoxyjuglone induces apoptosis in HepG2 human hepatocellular carcinoma cells and exhibits in vivo antitumor activity in a H22 mouse hepatocellular carcinoma model” (J Nat Prod, 2013).

One data set deals with Mus musculus. Description: Toxicity in Kunming mouse allografted with mouse H22 cells assessed as decrease in body weight at 20 mg/kg/day, ip measured every day for 8 days. It counts as organism-based. The arrangement: route intraperitoneal. Particulars: in vivo, 192 h.
Another data set deals with H22. Description: Antitumor activity against mouse H22 cells allografted in Kunming mouse assessed as decrease in weight of tumor mass at 20 mg/kg/day, ip administered 8 days measured after 10 days relative to control. In kind it is functional. Also on record: scale not given: the % may be the effect or the level left. Particulars: route intraperitoneal.

Regarding `O=c1[nH]cc(F)c(=O)[nH]1` [FLUOROURACIL], the Activity entry is given as “Toxic” with Mus musculus and 81% in the data set on H22.
